# Measured values published in patent US5506204A, “Muramyl compounds for treatment of septic shock” (Peptech (UK) Limited, priority 1991, dated 1996).
# Where two headings read alike, the source gives them in different places.
# Columns and labels:
# neutrophils [1] = test system: neutrophils
# Procedure: (§1) Neutrophils were isolated from peripheral blood. 3.5 ml of heparinised blood was spread over M-PRM medium (Flow Laboratories) and centrifuged for 40 minutes at 400g at 20° C. […] The cells were adjusted to a concentration of 2×10^6 ml.
# Myeloperoxidase: 100 μl of substrate mixture, consisting of 0.04% orthophenylene diamine (Sigma) and 0.014% hydrogen peroxide in phosphate citrate buffer (pH 5.0) was added to cells and incubated for 10 minutes before the reaction was stopped with 100 μl of 10% sulphuric acid. The optical density at 492 mu was measured with a Multiscan Titertek Plus (Flow Laboratories).
# (§2) For chemiluminescence, superoxide anion production, myeloperoxidase and acid phosphatase both the spontaneous and induced reactions were measured. Induction was performed by exposing the cells to opsonized zymosan (30 μl, 20 mg/ml) for 30 minutes at 37° C. before the assay.
# (§3) On day before treatment with GMDP (day -1) the neutrophil function of all patients was measured by the tests described above in Example 1. In the GMDP-treated group, GMDP was administered parenterally at a dose of 1-2 mg/day for five consecutive days. The total dose of GMDP was […].
# (§4) One day after the cessation of GMDP treatment (day +6), neutrophil function was again measured in all patients.
# [2] = test system: LPS-induced mortality in mice; test: Example 3: LPS-induced mortality in mice; assay type: in vivo, BALB/c mice; conditions: i.p. twice daily 100 μg or molar equivalent per mouse for 9 days before 300 μg LPS; mortality 2 days after LPS; FIG. 1
# Procedure: 25 female BALB/c mice weighing 16-18 g each were divided into 5 groups, each group containing 5 animals. Each group of mice received twice-daily doses of saline, GMDP, GMDP-OBu, MDP or GMDP-A. The compounds were administered by intra-peritoneal injection in twice-daily doses of 100 μg or the molar equivalent per mouse during a 9-day period before the injection of 300 μg LPS per mouse. […] Thus GMDP and GMDP-A would be useful in the treatment and prevention of sepsis and septic shock, whereas MDP and GMDP-OBu would not.
# neutrophils [3] = test system: neutrophils; remark: listed apart in the source
# Procedure: as §1
# Adhesion: 100 μl of neutrophil suspension were placed in the wells of a flat-bottomed culture dish, and incubated at 37° C. for 60 minutes. After washing off the non-adhesive cells, the adhered neutrophils were fixed with ethanol and stained with Romanovsky-Giemsa dye. After washing out the free dye, the cell-associated dye was dissolved in isopropanol, and the optical density (OD650) of the solution was determined using an "ELISA II" microprocessor (Boehringer). The number of adherent cells was calculated by reference to a standard curve.
# as §3, §4
# neutrophils [4] = test system: neutrophils; remark: listed apart in the source
# Procedure: as §1
# (§5) Acid phosphatase: 50 μl of substrate mixture, consisting of 0.24% paranitrophenyl phosphate (Boehring) and 0.84% NaCl in a sodium citrate buffer (pH 5.5) were added to cells and incubated for 30 minutes at 30° C. before the reaction was by adding 100 μl of 0.2M NaOH. The optical density at 405 mu was measured with a Multiscan Titertek Plus (Flow Laboratories).
# as §2
# (§6) In the treated group GMDP was given per os on days -2 and -1 before the operation, and subcutaneously on days +1, +2 and +3 after the operation at a dose of 1-2 mg/day. The total dose of GMDP was […]. On day +5 after the operation neutrophil function was again assessed in all patients by the same parameters as specified above.
# [5] = test system: patients suffering from acute sepsis; conditions: GMDP parenterally 1-2 mg/day for five days
# Procedure: The patients entering this trial were already suffering from serious systemic bacterial sepsis arising as a result of destructive cholecystitis, abscesses of the abdominal cavity, peritonitis, pancreonecrosis and post-operative pneumonia.
# as §3
# IL-1 = test: Example 6: IL-1 production by peritoneal macrophages in response to LPS; assay type: in vivo, BALB/c mice; conditions: 2 injections 12 hours apart; macrophages stimulated with LPS 25 μg/ml 24 hours; thymocyte co-stimulation bioassay; FIG. 4
# Procedure: Mice (BALB/c, female) 13-14 g, 5 animals in each group, received 2 injections of MDPs, 12 hours apart. The MDPs tested were MDP, muroctasin, MDP-Thr, MDP-OBu, GMDP-LL, GMDP-Lys(St) and GMDP-A. After the last injection, peritoneal cells were collected and the induction of IL-1 secretion by peritoneal macrophages was tested.
# Macrophages were collected from the peritoneal cavity of mice by lavage with Hank's balanced salt solution. After washing the cells, they were then placed in wells of flat-bottomed 96-well plates and incubated at 37° C. for 1 hour in RPMI containing 5% FCS. The plates were then washed with warm RPMI to remove non-adhering cells. LPS (25 μg/ml) was then added in fresh culture medium and the plates were further cultured for 24 hours.
# Production of IL-1 by peritoneal macrophages was assayed by thymocyte co-stimulation bioassay. Thymocytes from (CBA*C57BL.6)F1 mice (106), PHA (1 μg.ml), and the tested supernatant (50 μl) were placed into the wells of flat-bottomed 96-well plates. Thymocyte proliferation rate was measured 72 hours later by the incorporation of 3H TdR (1 μCi.well) during 6 hours prior to culture termination.
# [6] = test system: patients undergoing surgery for colon cancer
# Procedure: All the patients entering this trial were about to undergo major abdominal surgery for the resection of carcinoma of the colon.
# as §6
# The patients were monitored for post-operative sepsis for four weeks following the operation. The septic complications which were scored included disseminated sepsis, pneumonia, peritonitis and abdominal abscesses, all of which are known to lead to septic shock.
# neutrophils [7] = test system: neutrophils; remark: listed apart in the source
# Procedure: as §1, §5, §2, §3, §4
# [8] = opsonized zymosan, Day -1 (before treatment)
# [9] = opsonized zymosan, Day -1 to Day +6
compound,measurement,setting,value
"CC(=O)NC1C(OC2C(CO)OC(O)C(NC(C)=O)C2OC(C)C(=O)NC(C)C(=O)NC(CCC(=O)O)C(N)=O)OC(CO)C(O)C1O [GMDP, N-acetyl-D-glucosaminyl-(β1-4)-N-acetylmuramyl-L-alanyl-D-isoglutamine]","Myeloperoxidase, spontaneous",neutrophils [1]; Day +6,595.2 ± 48.3 O.D. 492μ
same,"Myeloperoxidase, spontaneous",neutrophils [1]; Day -1 (before treatment),504.5 ± 118 O.D. 492μ
same,"Myeloperoxidase, spontaneous % Change",neutrophils [1]; Day -1 to Day +6,+17.9%
same,"Myeloperoxidase, induced","neutrophils [1]; opsonized zymosan, Day +6",587.1 ± 96.3 O.D. 492μ
same,"Myeloperoxidase, induced",neutrophils [1]; [8],520.3 ± 60.1 O.D. 492μ
same,"Myeloperoxidase, induced % Change",neutrophils [1]; [9],+12.8%
same,effect on LPS-induced mortality,[2],antagonise the effect of LPS
same,Adhesion,neutrophils [3]; Day +6,52.3 ± 2.3 O.D. 650μ
same,Adhesion,neutrophils [3]; Day -1 (before treatment),34.6 ± 6.2 O.D. 650μ
same,Adhesion % Change,neutrophils [3]; Day -1 to Day +6,+51.2%
same,"Acid phosphatase, spontaneous",neutrophils [4]; Day +5,114.9 ± 2.4 O.D. 405μ
same,"Acid phosphatase, spontaneous",neutrophils [4]; Day -3 (before treatment),133.8 ± 75 O.D. 405μ
same,"Acid phosphatase, spontaneous % Change",neutrophils [4]; Day -3 to Day +5,-14.1%
same,"Acid phosphatase, induced","neutrophils [4]; opsonized zymosan, Day +5",120.8 ± 3.2 O.D. 405μ
same,"Acid phosphatase, induced","neutrophils [4]; opsonized zymosan, Day -3 (before treatment)",172.3 ± 18.8 O.D. 405μ
same,"Acid phosphatase, induced % Change","neutrophils [4]; opsonized zymosan, Day -3 to Day +5",-29.94%
same,No of patients with progression of septic complications,[5]; 14 treated patients,4
same,Mortality (%),[5]; control 27%,14.3%
same,Incidence of progression of septic complications (%),[5]; control 61%,28.6%
same,suppression of IL-1 production,IL-1,suppress the IL-1 response to LPS
same,No of Patients with Septic Complications,"[6]; 16 treated patients, GMDP 1-2 mg/day per os days -2,-1, s.c. days +1 to +3, monitored 4 weeks",3
same,Mortality (%),"[6]; GMDP before and after operation, control 15%",6.25%
same,Incidence of Septic Complications (%),"[6]; GMDP before and after operation, control 50%",18.75%
same,"Acid phosphatase, spontaneous",neutrophils [7]; Day +6,251.3 ± 16.1 O.D. 405μ
same,"Acid phosphatase, spontaneous",neutrophils [7]; Day -1 (before treatment),119.4 ± 10.1 O.D. 405μ
same,"Acid phosphatase, spontaneous % Change",neutrophils [7]; Day -1 to Day +6,+110.5%
same,"Acid phosphatase, induced","neutrophils [7]; opsonized zymosan, Day +6",201 ± 14.3 O.D. 405μ
same,"Acid phosphatase, induced",neutrophils [7]; [8],104.4 ± 3.6 O.D. 405μ
same,"Acid phosphatase, induced % Change",neutrophils [7]; [9],+92.5%
